Assay results taken from paper PMC9837865 (Pharmacology, biochemistry, and behavior, 2022).
Read-outs that look alike come from different tables or passages of the source.

Key:
[1] = tested on: male ICR mice; assay: Rectal temperature time course
[2] = tested on: male ICR mice; assay: Rectal temperature dose-effect; conditions: for maximal hypothermia, difference from that produced by Δ9-THC: across the dose range tested
[3] = molecular target: T1, hCB2 receptor (Homo sapiens, UniProt P34972); assay: [3H]CP55,940 competition binding at hCB2 in HEK293 cell membranes; conditions: for greater affinity at hCB2 receptors than at hCB1: binding affinity ratio hCB2 over hCB1
[4] = molecular target: T2, hCB1 receptor (Homo sapiens, UniProt P21554); assay: Agonist-stimulated [35S]GTPγS binding, hCB1 HEK293 membranes
[5] = molecular target: T1, hCB2 receptor; assay: Agonist-stimulated [35S]GTPγS binding, hCB2 HEK293 membranes; conditions: for greater potency at hCB2 receptors than at hCB1 receptors: [35S]GTPγS potency ratio
[6] = molecular target: T2, hCB1 receptor; assay: [3H]CP55,940 competition binding at hCB1 in HEK293 cell membranes; conditions: for Ki: value in parenthesis
[7] = radiotelemetry, 6-h period; ref Sparkes et al., 2022; cited from earlier work
[8] = 100 mg/kg i.p., compared to vehicle at same timepoint
[9] = CB2 Ki, [3H]CP55,940 displacement, value in parenthesis
[10] = 3 mg/kg i.p., compared to vehicle at same timepoint
[11] = [35S]GTPγS Turnover CB2 EC50, value in parenthesis
[12] = CB1 Ki, [3H]CP55,940 displacement
[13] = [35S]GTPγS Turnover CB2 pEC50, pEC50 ± SEM
[14] = [3H]CP55,940 displacement, pKi ± SEM
[15] = 10 mg/kg i.p., compared to vehicle at same timepoint

T1 sequence (P34972 whole entry): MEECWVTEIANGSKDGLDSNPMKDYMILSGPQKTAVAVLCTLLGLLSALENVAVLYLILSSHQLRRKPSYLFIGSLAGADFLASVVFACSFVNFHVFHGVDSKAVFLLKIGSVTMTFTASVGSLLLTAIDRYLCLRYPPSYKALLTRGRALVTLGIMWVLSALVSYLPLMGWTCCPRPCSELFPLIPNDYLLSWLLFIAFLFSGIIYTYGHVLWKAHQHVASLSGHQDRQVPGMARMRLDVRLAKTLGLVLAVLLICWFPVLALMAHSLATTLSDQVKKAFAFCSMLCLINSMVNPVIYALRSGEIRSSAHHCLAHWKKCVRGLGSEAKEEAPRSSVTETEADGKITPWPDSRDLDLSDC
T2 sequence (P21554 whole entry): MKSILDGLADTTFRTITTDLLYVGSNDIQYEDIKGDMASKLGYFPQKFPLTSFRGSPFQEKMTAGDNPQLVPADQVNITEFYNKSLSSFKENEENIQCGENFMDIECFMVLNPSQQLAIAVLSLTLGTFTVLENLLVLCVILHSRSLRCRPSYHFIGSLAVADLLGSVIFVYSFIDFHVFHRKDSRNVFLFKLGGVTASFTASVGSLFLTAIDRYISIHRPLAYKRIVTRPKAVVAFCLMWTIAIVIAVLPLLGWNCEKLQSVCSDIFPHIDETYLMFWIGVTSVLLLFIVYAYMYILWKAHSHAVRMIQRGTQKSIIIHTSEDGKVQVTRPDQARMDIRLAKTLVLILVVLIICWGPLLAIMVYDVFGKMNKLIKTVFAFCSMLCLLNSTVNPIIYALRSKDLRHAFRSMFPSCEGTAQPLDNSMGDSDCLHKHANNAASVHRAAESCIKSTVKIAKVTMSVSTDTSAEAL

Compound	Ki [3, 9] [nM]	EC50 [4] [nM]	[35S]GTPγS Turnover CB1 Emax [4]	duration of significant hypothermic effect [1, 10] [h]	[35S]GTPγS Turnover CB2 Emax [5]	EC50 [5, 11] [nM]	Ki [6, 12] [nM]	maximal hypothermia, difference from that produced by Δ9-THC [2] [°C]	greater potency at hCB2 receptors than at hCB1 receptors [5] [fold]	greater affinity at hCB2 receptors than at hCB1 [3] [fold]	also measured
CCCCCc1cc(O)c2c(c1)OC(C)(C)[C@@H]1CCC(C)=C[C@@H]21 [Δ^9-THC, Δ^9-tetrahydrocannabinol, reference compound]											time of peak hypothermic effect post-injection ([1]; 100 mg/kg i.p.): 1 to 3 h; duration of significant hypothermic effect [1, 8]: 8 h; time of peak hypothermic effects ([1]; single dose of each compound, as summarised in the discussion): 2 h; lowest dose that decreased temperature ([2]; i.p., compared to vehicle): 30 mg/kg
COC(=O)[C@@H](NC(=O)c1cn(CCCCCF)c2ccccc12)C(C)(C)C [5F-MDMB-PICA, methyl (2S)-2-{[1-(5-fluoropentyl)-1H-indole-3-carbonyl]amino}-3,3-dimethylbutanoate]	0.437	5.07	380 ± 27.4 ^^ 3 % stimulation over basal	7	189 ± 25.2 3 % stimulation over basal	1.65	1.25				
CCOC(=O)C(NC(=O)c1nn(CCCCCF)c2ccccc12)C(C)(C)C (stereo not drawn) [5F-EDMB-PINACA, ethyl 2-(1-(5-fluoropentyl)-1H-indazole-3-carboxamido)-3,3-dimethylbutanoate]	0.312	1.6	387 ± 69.0 ^† 3 % stimulation over basal	3	161 ± 8.36 3 % stimulation over basal	0.442	0.378				EC50 [5, 13]: 0.437 nM
COC(=O)C(NC(=O)c1cn(Cc2ccc(F)cc2)c2ccccc12)C(C)C (stereo not drawn) [MMB-FUBICA, methyl 2-(1-(4-fluorobenzyl)-1H-indole-3-carboxamido)-3-methylbutanoate]	22.5	59.7	278 ± 29.3 ^† 3 % stimulation over basal		52.1 ± 6.73 3 % stimulation over basal	22.1	12	≤ 1.5			duration of significant hypothermic effect ([1]; 6 mg/kg i.p.): 2 h; EC50 [5, 13]: 22.4 nM; greater affinity for CB1 than CB2 ([6]; binding affinity ratio CB1 over CB2): approximately 2 fold
O=C(NC12CC3CC(CC(C3)C1)C2)c1nn(Cc2ccc(F)cc2)c2ccccc12 [FUB-AKB48, N-((3s,5s,7s)-adamantan-1-yl)-1-(4-fluorobenzyl)-1H-indazole-3-carboxamide]			368 ± 55.5 ^‡ 4 % stimulation over basal		131 ± 16.5 4 % stimulation over basal			≤ 1.5	16		CB2 pKi [3, 14]: 9.08 ± 0.0188; Ki ([3]; read-out: CB2 Ki, [3H]CP55,940 displacement, value in parenthesis): 0.823 nM; [35S]GTPγS Turnover CB1 pEC50 ([4]; pEC50 ± SEM): 8.16 ± 0.162; EC50 ([4]; read-out: [35S]GTPγS Turnover CB1 EC50, value in parenthesis): 6.94 nM; duration of significant hypothermic effect [1, 15]: ≤ 1 h; [35S]GTPγS Turnover CB2 pEC50 ([5]; pEC50 ± SEM): 9.37 ± 0.318; EC50 ([5]; read-out: [35S]GTPγS Turnover CB2 EC50, value in parenthesis): 0.424 nM; CB1 pKi [6, 14]: 8.89 ± 0.265; Ki ([6]; read-out: CB1 Ki, [3H]CP55,940 displacement): 1.3 nM
CCCCn1nc(C(=O)N[C@@H](Cc2ccccc2)C(N)=O)c2ccccc21 [APP-BINACA, N-[(2S)-1-amino-1-oxo-3-phenylpropan-2-yl]-1-butylindazole-3-carboxamide]	9.34	344	180 ± 25.1 3 % stimulation over basal		83.2 ± 2.72 3 % stimulation over basal	2.24	107		153	12	duration of significant hypothermic effect [1, 8]: 4 h; hypothermia [7]: failed to produce any hypothermia
C=CCCCn1cc(C(=O)NC(C(=O)OC)C(C)C)c2ccccc21 (stereo not drawn) [MMB-4en-PICA, methyl 3-methyl-2-[(1-pent-4-enylindole-3-carbonyl)amino]butanoate]	15.6	60.7	298 ± 31.9 ^‡ 4 % stimulation over basal		77.6 ± 7.17 5 % stimulation over basal	12.4	39	≤ 1.5			duration of significant hypothermic effect ([1]; 60 mg/kg i.p.): 5 h
COC(=O)[C@@H](NC(=O)c1cn(CCCCCF)c2ccccc12)C(C)C [5F-MMB-PICA, methyl (2S)-2-[[1-(5-fluoropentyl)indole-3-carbonyl]amino]-3-methylbutanoate]	3.4	27	295 ± 21.2 ^† 3 % stimulation over basal		77.8 ± 13.3 3 % stimulation over basal	8.19	6.45	≤ 1.5			duration of significant hypothermic effect [1, 15]: 3 h
CC1(C)C(C(=O)c2cn(Cc3ccc(F)cc3)c3ccccc23)C1(C)C [FUB-144, (1-(4-fluorobenzyl)-1H-indol-3-yl)(2,2,3,3-tetramethylcyclopropyl)methanone]	1.19	90.6	218 ± 31.5 4 % stimulation over basal		194 ± 8.45 3 % stimulation over basal	4.61	27.2	≤ 1.5	20	23	Ki ([3]; CB2 pKi, [3H]CP55,940 displacement, pKi ± SEM): 1.17 nM; duration of significant hypothermic effect ([1]; 20 mg/kg i.p.): 1 h
C=CCCCn1nc(C(=O)NC(C(=O)OC)C(C)(C)C)c2ccccc21 (stereo not drawn) [MDMB-4en-PINACA, methyl 3,3-dimethyl-2-{[1-(pent-4-en-1-yl)-1H-indazole-3-carbonyl]amino}butanoate]	0.213	3.3	304 ± 42.8 ^‡ 3 % stimulation over basal	4	63.6 ± 9.95 3 % stimulation over basal	1.34	1.4			7	
